Source: PubChem BioAssay (NCI)
“And” between values parts separate entries of the source, which are not always exact repeats. Equal values may be shown once.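 Method: 48-hour compound exposure of cells in 96-well plates, five concentrations, linear interpolation of endpoints. GI50 is the concentration that inhibits growth by half. Definition used: TGI = concentration required for complete inhibition of growth.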

Assays:
Experiment in all cases: NCI anticancer screen, dose series, 48 h
KM12 colon = system: KM12 colon
RPMI-8226 leukemia = system: RPMI-8226 leukemia
SR leukemia = system: SR leukemia
UACC-62 melanoma = system: UACC-62 melanoma
IGROV1 ovarian = system: IGROV1 ovarian
SK-MEL-28 melanoma = system: SK-MEL-28 melanoma
OVCAR-4 ovarian = system: OVCAR-4 ovarian
MOLT-4 leukemia = system: MOLT-4 leukemia
786-0 renal = system: 786-0 renal
HCT-116 colon = system: HCT-116 colon

Structure (SMILES) | GI50 (KM12 colon) | TGI (KM12 colon) | GI50 (RPMI-8226 leukemia) | TGI (RPMI-8226 leukemia) | GI50 (SR leukemia) | TGI (SR leukemia) | TGI (UACC-62 melanoma) | GI50 (IGROV1 ovarian) | TGI (IGROV1 ovarian) | GI50 (SK-MEL-28 melanoma) | TGI (SK-MEL-28 melanoma) | GI50 (OVCAR-4 ovarian) | TGI (OVCAR-4 ovarian) | GI50 (MOLT-4 leukemia) | TGI (MOLT-4 leukemia) | TGI (786-0 renal) | GI50 (HCT-116 colon) | TGI (HCT-116 colon) | GI50 (UACC-62 melanoma) | GI50 (786-0 renal)
COc1cc2c3cc1Oc1c(OC)c(OC)cc4c1C(Cc1ccc(O)c(c1)Oc1ccc(cc1)CC3N(C)CC2)N(C)CC4 (centres undefined) | 14.2 µM | 65.8 µM and 31.8 µM | 11.8 µM | 40.1 µM | 3.32 µM | 21 µM | > 100 µM and 29.2 µM | 27.7 µM | > 100 µM | 8.49 µM | > 100 µM and 23.1 µM | 15.3 µM | > 100 µM and 50.7 µM | 12.1 µM | > 100 µM and 54.9 µM | > 100 µM and 33.3 µM | 5.56 µM | > 100 µM and 49.5 µM |  | 
COc1cccc(/C=N\NC(=O)C(C)SC(C)C(=O)N/N=C/c2cccc(OC)c2)c1 (centres undefined) |  | > 67.3 µM |  | > 82.3 µM |  | > 100 µM | 97.4 µM |  | 41.7 µM |  | > 72.8 µM |  | 31.9 µM |  | > 100 µM | 31.6 µM |  | 34.7 µM |  | 
COc1cc2cc(Oc3cccc(NC(=O)Nc4cc(C(F)(F)F)cc(C(F)(F)F)c4)c3)c(C)nc2cc1OC | 0.918 µM | 2.46 µM | 0.406 µM | 5.51 µM | 1.62 µM | 5.97 µM | 2.09 µM | 0.509 µM | 2.3 µM | 1.19 µM | 3.09 µM | 1.22 µM | 4.44 µM | 1.13 µM | 4.04 µM | 3.09 µM | 0.589 µM | 1.92 µM | 0.561 µM | 1.61 µM
Cn1c(=O)c2c(nc(N/N=C/c3ccccc3C(=O)O)n2C)n(C)c1=O |  | > 100 µM |  | > 100 µM |  | > 100 µM | > 100 µM |  | > 100 µM |  | > 100 µM |  | > 100 µM |  | > 100 µM | > 100 µM |  | > 100 µM |  | 
Nn1c(-c2ccc(Cl)cc2)nc2c(-c3ccc(Cl)cc3)nc3ccc(Cl)cc3c2c1=O | > 100 µM | > 100 µM | 4.14 µM | 26.3 µM | 4.08 µM | 20.2 µM | > 100 µM | 4.01 µM | 32.8 µM | 49.6 µM | > 100 µM | 3.55 µM | 15.1 µM | 4.67 µM | > 100 µM | 54.3 µM | 5.79 µM | > 100 µM | 32.2 µM | 16.4 µM
O=C1Nc2ccc3c(c2/C1=C\c1cc2c(cc1Br)OCO2)OCO3 | 0.307 µM | 1.43 µM | 0.27 µM | 0.801 µM | 0.239 µM | > 30.8 µM | 3.23 µM | 0.199 µM | 1.7 µM | 0.911 µM | 5.32 µM | 1.7 µM | 5.14 µM | 0.489 µM | > 100 µM | 3.43 µM | 0.376 µM | 1.72 µM | 0.359 µM | 1.24 µM
CC[C@H]1OC(=O)[C@H](C)[C@@H](O[C@H]2C[C@@](C)(OC)[C@@H](O)[C@H](C)O2)[C@H](C)[C@@H](O[C@@H]2O[C@H](C)C[C@H](N(C)C)[C@H]2O)[C@](C)(OC)C/C(C)=C2/O[C@@]1(C)C=C2C | 1.63 µM | 3.11 µM | 1.9 µM | 5.14 µM | 1.97 µM | 5.09 µM | 3.18 µM | 1.59 µM | 3.03 µM | 1.89 µM | 3.32 µM | 1.85 µM | 4.22 µM | 1.96 µM | 4.49 µM | 3.16 µM | 1.93 µM | 4.36 µM | 1.76 µM | 1.64 µM
Clc1ccc(CN2CCCN(Cc3ccc(Cl)cc3)C2c2cc3ccccc3c3ccccc23)cc1 |  | > 100 µM |  | > 100 µM |  | > 100 µM | 36.7 µM |  | > 100 µM |  | 54.5 µM |  | > 100 µM |  | > 100 µM | > 100 µM |  | > 100 µM |  | 
COc1ccc(C(O)c2cc3c(N)c(C(=O)Nc4cccc(Br)c4C)sc3nc2C)cc1 (centres undefined) | 0.152 µM | 11.7 µM | 0.167 µM | > 33.3 µM | 0.125 µM | > 33.3 µM | > 31 µM | 0.375 µM | 18.8 µM | 5.2 µM | > 33.3 µM | 2.81 µM | > 33.3 µM | 0.177 µM | > 33.3 µM | > 33.3 µM | 0.141 µM | 7.46 µM | 0.141 µM | 0.254 µM
NCCCN=c1ccc2c3c1c(O)c1c(O)ccc(=O)c1c3[nH]n2CCNCCO | 1.88 µM | 11.6 µM and 39 µM | 2.93 µM | 9.94 µM and 22.3 µM | 0.291 µM |  | 5.66 µM and 6.48 µM |  | 15.4 µM and 129 µM | 5.48 µM and 6.41 µM |  |  | 10.5 µM and 20.1 µM | 0.343 µM | 7.68 µM and 19.4 µM | 11.4 µM and 5.28 µM | 2.06 µM and 1.46 µM | 9.67 µM and 20.2 µM | 0.792 µM | 0.723 µM
CSC1=Nc2c(c(C)c(-c3ccccc3)n2COC(CO)CO)C2=NC(=O)CC(C)N12 (centres undefined) | > 100 µM | > 100 µM | > 100 µM | > 100 µM | > 100 µM | > 100 µM | > 100 µM | > 100 µM | > 100 µM | > 100 µM | > 100 µM | > 100 µM | > 100 µM | > 100 µM | > 100 µM | > 100 µM | > 100 µM | > 100 µM | > 100 µM | > 100 µM
COc1ccc(Br)c(C(=O)N2CCc3ccccc32)c1N |  | > 100 µM |  | > 100 µM |  | 79.1 µM | > 100 µM |  | > 100 µM |  | > 100 µM |  | > 100 µM |  | > 100 µM | > 100 µM |  | > 100 µM |  | 
CCOC(=O)c1c(CN2CCN(C)CC2)nc2ccc(Cl)cc2c1-c1ccccc1 | 6.76 µM | 19.1 µM | 2.98 µM | 12.7 µM | 1.93 µM | 4.78 µM | 7.76 µM | 7.14 µM | 19.9 µM | 1.74 µM | 3.19 µM | 4.98 µM | 17.4 µM | 2.92 µM | 12.9 µM | 18.8 µM | 6.51 µM | 19.1 µM | 2.35 µM | 7.05 µM
COc1ccc(/C=C/C(=O)c2cc3c(N)c(C(=O)Nc4ccc(OC)cc4)sc3nc2C)cc1 | 0.203 µM | 20.5 µM | 0.348 µM | > 34 µM | 0.889 µM | > 50 µM | > 50 µM | 0.551 µM | > 50 µM | 0.4 µM | > 50 µM | 0.324 µM | > 50 µM | 0.697 µM | > 50 µM | > 50 µM | 0.0634 µM | 17.5 µM | 0.161 µM | 0.353 µM
CCOc1ccc2cc(-c3nn(CC4CCNCC4)c4ncnc(N)c34)ccc2c1 | 1.64 µM | 13.7 µM | 14 µM | 34.6 µM | 4.23 µM | 19.6 µM | 32.1 µM | 11.7 µM | 27.8 µM | 16.1 µM | 30.2 µM | 10.9 µM | 33.4 µM | 4.73 µM | 19.8 µM | 28.4 µM | 13.4 µM | 29.3 µM | 16.9 µM | 14.6 µM
NC(=O)/C(=C/n1cnc(-c2cc(C(F)(F)F)cc(C(F)(F)F)c2)n1)c1cncnc1 | 1.19 µM | 13.4 µM | 0.102 µM | 9.53 µM | 0.0563 µM | > 34.4 µM | 5.37 µM | 0.696 µM | 14.7 µM | 0.503 µM | 11.7 µM | 0.0833 µM | 16.1 µM | 0.0884 µM | 6.32 µM | 11.4 µM | 0.162 µM | 4.95 µM | 0.63 µM | 0.412 µM
NC1=NCN(C2OC(CO)C(O)C2O)C(=O)N1 (centres undefined) |  | 674 µM |  | 159 µM |  | 278 µM | 241 µM |  | 299 µM |  | 1660 µM |  | 1510 µM |  | 152 µM | 2050 µM |  | 143 µM |  | 
CCOC1Oc2ccc(C)cc2C(=O)/C1=C\Nc1ccc(S(N)(=O)=O)cc1 (centres undefined) | 12 µM | 32.5 µM | 6.21 µM | 25.2 µM | 9.23 µM | > 50 µM | 38.2 µM | 15 µM | > 50 µM | 14.5 µM | > 50 µM | 15.2 µM | > 50 µM | 13.9 µM | > 50 µM | 13.6 µM | 6.62 µM | 14.9 µM | 12.5 µM | 6.88 µM
